Values quoted from earlier work as cited in PMC7395068, “The evolution of strategies to minimise the risk of human drug-induced liver injury (DILI) in drug discovery and development” (Archives of Toxicology, 2020).
Where two headings read alike, the source gives them in different places.

Conditions: cited from earlier work
[1] = binary in vivo human DILI call, ref Chen 2016
[2] = human DILI, LTKB DILIrank category, ref Chen 2016
[3] = binary in vivo DILI call given beside the severity category, ref Chen 2016
[4] = human DILI concern category (LTKB DILIrank), ref Chen 2016

SMILES	DILI +VE (5-8), DILI -VE (-4) [1]	DILI severity category [2]	further results
CCN(CCO)CCCC(C)Nc1ccnc2cc(Cl)ccc12 (stereo not drawn) [hydroxychloroquine]	+VE	vLess-DILI-Concern	
CCCCCC(=O)O[C@]1(C(C)=O)CC[C@H]2[C@@H]3CCC4=CC(=O)CC[C@]4(C)[C@H]3CC[C@@]21C [hydroxyprogesterone caproate]	-VE	Ambiguous DILI-concern	
CCCCCN(C)CCC(O)(P(=O)(O)O)P(=O)(O)O [ibandronate]	-VE	vNo-DILI-Concern	
CCCCCCCN(CC)CCCC(O)c1ccc(NS(C)(=O)=O)cc1 (stereo not drawn) [ibutilide]			DILI +VE (5-8), DILI -VE (-4) (in vivo): -VE; DILI severity category (in vivo): vNo-DILI-Concern
COc1cc(C(C)=O)ccc1OCCCN1CCC(c2noc3cc(F)ccc23)CC1 [iloperidone]	-VE	Ambiguous DILI-concern	
CC1Cc2ccccc2N1NC(=O)c1ccc(Cl)c(S(N)(=O)=O)c1 (stereo not drawn) [indapamide]	-VE	Ambiguous DILI-concern	
CC1(C)C(/C=C/C=C/C=C/C=C2\N(CCCCS(=O)(=O)O)c3ccc4ccccc4c3C2(C)C)=[N+](CCCCS(=O)(=O)[O-])c2ccc3ccccc3c21 [indocyanine green]	-VE	vNo-DILI-Concern	
O=C(CCCCC(=O)Nc1c(I)cc(I)c(C(=O)O)c1I)Nc1c(I)cc(I)c(C(=O)O)c1I [iodipamide meglumine]	-VE	vNo-DILI-Concern	
CNC(=O)c1c(I)c(NC(C)=O)c(I)c(C(=O)O)c1I [iothalamate sodium]	-VE	vNo-DILI-Concern	
CCc1c2c(nc3ccc(OC(=O)N4CCC(N5CCCCC5)CC4)cc13)-c1cc3c(c(=O)n1C2)COC(=O)[C@]3(O)CC [irinotecan]			DILI +VE (5-8), DILI -VE (-4) (in vivo): +VE; DILI severity category (in vivo): vLess-DILI-Concern
CC(C)Nc1ncccn1 [isaxonine]	+VE	vMost-DILI-Concern	
O=[N+]([O-])O[C@@H]1CO[C@H]2[C@@H]1OC[C@@H]2O [isorbide mononitrate]			DILI +VE (5-8), DILI -VE (-4) (in vivo): -VE; DILI severity category (in vivo): Ambiguous DILI-concern
CC[C@H](C)[C@H]1O[C@]2(CC[C@@H]1C)C[C@@H]1C[C@@H](C/C=C(\C)[C@@H](O[C@H]3C[C@H](OC)[C@@H](O[C@H]4C[C@H](OC)[C@@H](O)[C@H](C)O4)[C@H](C)O3)[C@@H](C)/C=C/C=C3\CO[C@@H]4[C@H](O)C(C)=C[C@@H](C(=O)O1)[C@]34O)O2 [ivermectin]	+VE	vLess-DILI-Concern	
C/C(=C\c1csc(C)n1)[C@@H]1C[C@@H]2O[C@]2(C)CCC[C@H](C)[C@H](O)[C@@H](C)C(=O)C(C)(C)[C@@H](O)CC(=O)N1 [ixabepilone]	-VE	Ambiguous DILI-concern	
CNC1(c2ccccc2Cl)CCCCC1=O (stereo not drawn) [ketamine]	+VE	vLess-DILI-Concern	
C[N+](C)(C)C[C@H](O)CC(=O)[O-] [l-carnitine]	-VE	vNo-DILI-Concern	
N[C@@H](CS)C(=O)O [l-cysteine]			DILI +VE (5-8), DILI -VE (-4) (in vivo): -VE; DILI severity category (in vivo): Ambiguous DILI-concern
CSCC[C@H](N)C(=O)O [l-methionine]	-VE	vNo-DILI-Concern	
CC(C)[C@@H]1NC(=O)[C@H](CCCCN)NC(=O)[C@@H](Cc2c[nH]c3ccccc23)NC(=O)[C@H](Cc2ccc(O)cc2)NC(=O)[C@@H](NC(=O)[C@H](N)Cc2ccc3ccccc3c2)CSSC[C@@H](C(=O)N[C@H](C(N)=O)[C@@H](C)O)NC1=O [lanreotide acetate]	-VE	Ambiguous DILI-concern	
Cc1c(OCC(F)(F)F)ccnc1C[S+]([O-])c1nc2ccccc2[nH]1 (stereo not drawn) [lansoprazole]	+VE	vLess-DILI-Concern	
O=C([O-])[O-].O=C([O-])[O-].O=C([O-])[O-].[La+3].[La+3] [lanthanum carbonate]			DILI +VE (5-8), DILI -VE (-4) (in vivo): -VE; DILI severity category (in vivo): vNo-DILI-Concern
Nc1cccc2c1CN(C1CCC(=O)NC1=O)C2=O (stereo not drawn) [lenalidomide]	+VE	vLess-DILI-Concern	
N#Cc1ccc(C(c2ccc(C#N)cc2)n2cncn2)cc1 [letrozole]	+VE	vLess-DILI-Concern	
Nc1nc2c(c(=O)[nH]1)N(C=O)C(CNc1ccc(C(=O)N[C@@H](CCC(=O)O)C(=O)O)cc1)CN2 (stereo partly drawn) [leucovorin]	-VE	vNo-DILI-Concern	
CN1c2c(nc(N)[nH]c2=O)NC[C@@H]1CNc1ccc(C(=O)N[C@@H](CCC(=O)O)C(=O)O)cc1 [levomefolate calcium]			DILI +VE (5-8), DILI -VE (-4) (in vivo): -VE; DILI severity category (in vivo): vNo-DILI-Concern
C#C[C@]1(O)CC[C@H]2[C@@H]3CCC4=CC(=O)CC[C@@H]4[C@H]3CC[C@@]21CC [levonorgestrel]			DILI +VE (5-8), DILI -VE (-4) (in vivo): -VE; DILI severity category (in vivo): vNo-DILI-Concern
CN1CC[C@]23CCCC[C@H]2[C@H]1Cc1ccc(O)cc13 [levorphanol]	-VE	vNo-DILI-Concern	

SMILES	DILI +VE (5-8), DILI -VE (-4) [1]	DILI severity category [2]	further results
N[C@@H](Cc1cc(I)c(Oc2cc(I)c(O)c(I)c2)c(I)c1)C(=O)O [levothyroxine]	+VE	vLess-DILI-Concern	
CCC[C@@H]1C[C@@H](C(=O)N[C@@H]([C@H]2O[C@H](SC)[C@H](O)[C@@H](O)[C@H]2O)[C@@H](C)O)N(C)C1 [lincomycin]	-VE	Ambiguous DILI-concern	
CC(=O)NC[C@H]1CN(c2ccc(N3CCOCC3)c(F)c2)C(=O)O1 [linezolid]			DILI +VE (5-8), DILI -VE (-4) (in vivo): +VE; DILI severity category (in vivo): vLess-DILI-Concern
C[C@@H](Cc1ccccc1)NC(=O)[C@@H](N)CCCCN [lisdexamfetamine]	-VE	Ambiguous DILI-concern	
O=NN(CCCl)C(=O)NC1CCCCC1 [lomustine]			DILI +VE (5-8), DILI -VE (-4) (in vivo): +VE; DILI severity category (in vivo): vLess-DILI-Concern
N[C@@H](C(=O)N[C@@H]1C(=O)N2C(C(=O)O)=C(Cl)CC[C@H]12)c1ccccc1 [loracarbef]			DILI +VE (5-8), DILI -VE (-4) (in vivo): +VE; DILI severity category (in vivo): vLess-DILI-Concern
O=C1Nc2ccc(Cl)cc2C(c2ccccc2Cl)=NC1O (stereo not drawn) [lorazepam]	-VE	Ambiguous DILI-concern	
CN1CCN(C2=Nc3ccccc3Oc3ccc(Cl)cc32)CC1 [loxapine]			DILI +VE (5-8), DILI -VE (-4) (in vivo): -VE; DILI severity category (in vivo): Ambiguous DILI-concern
OC[C@@H](O)[C@@H](O)[C@H](O)[C@H](O)CO [mannitol]	-VE	vNo-DILI-Concern	
CCCCCc1cc(O)c2c(c1)OC(C)(C)[C@@H]1CCC(C)=C[C@@H]21 [marinol]			DILI +VE (5-8), DILI -VE (-4) (in vivo): -VE; DILI severity category (in vivo): Ambiguous DILI-concern
Cc1ccc(Cl)c(Nc2ccccc2C(=O)O)c1Cl [meclofenamic acid]	-VE	Ambiguous DILI-concern	
N[C@@H](Cc1ccc(N(CCCl)CCCl)cc1)C(=O)O [melphalan]	+VE	vLess-DILI-Concern	
CN1CCCC(CN2c3ccccc3Sc3ccccc32)C1 (stereo not drawn) [mepazine]	+VE	vMost-DILI-Concern	
C[N+]1(C)CCCC(OC(=O)C(O)(c2ccccc2)c2ccccc2)C1 (stereo not drawn) [mepenzolate]	-VE	vNo-DILI-Concern	
CCCC(C)(COC(N)=O)COC(N)=O [meprobamate]	-VE	vNo-DILI-Concern	
O=S(=O)(O)CCS [mesna]			DILI +VE (5-8), DILI -VE (-4) [3]: -VE; DILI severity category [4]: Ambiguous DILI-concern
CN1CCCCC1CCN1c2ccccc2Sc2ccc([S+](C)[O-])cc21 (stereo not drawn) [mesoridazine]			DILI +VE (5-8), DILI -VE (-4) [3]: -VE; DILI severity category [4]: Ambiguous DILI-concern
Cc1cc(C)cc(OCC2CNC(=O)O2)c1 (stereo not drawn) [metaxalone]			DILI +VE (5-8), DILI -VE (-4) [3]: +VE; DILI severity category [4]: vLess-DILI-Concern
CCC(=O)C(CC(C)N(C)C)(c1ccccc1)c1ccccc1 (stereo not drawn) [methadone]			DILI +VE (5-8), DILI -VE (-4) (in vivo): -VE; DILI severity category (in vivo): Ambiguous DILI-concern
CC(=O)/N=c1/sc(S(N)(=O)=O)nn1C [methazolamide]			DILI +VE (5-8), DILI -VE (-4) [3]: +VE; DILI severity category [4]: vLess-DILI-Concern
C1N2CN3CN1CN(C2)C3 [methenamine hippurate]			DILI +VE (5-8), DILI -VE (-4) [3]: -VE; DILI severity category [4]: Ambiguous DILI-concern
C=CCC1(C(C)C#CCC)C(=O)N=C(O)N(C)C1=O (stereo not drawn) [methohexital]			DILI +VE (5-8), DILI -VE (-4) [3]: -VE; DILI severity category [4]: Ambiguous DILI-concern
CN1C(=O)CC(C)(c2ccccc2)C1=O (stereo not drawn) [methsuximide]			DILI +VE (5-8), DILI -VE (-4) [3]: -VE; DILI severity category [4]: vNo-DILI-Concern
C[N@+]1(CC2CC2)CC[C@]23c4c5ccc(O)c4O[C@H]2C(=O)CC[C@@]3(O)[C@H]1C5 [methylnaltrexone bromide]			DILI +VE (5-8), DILI -VE (-4) [3]: -VE; DILI severity category [4]: vNo-DILI-Concern
COC(=O)C(c1ccccc1)C1CCCCN1 (stereo not drawn) [methylphenidate]			DILI +VE (5-8), DILI -VE (-4) (in vivo): +VE; DILI severity category (in vivo): vLess-DILI-Concern
C[C@H]1C[C@@H]2[C@H]([C@@H](O)C[C@@]3(C)[C@H]2CC[C@]3(O)C(=O)CO)[C@@]2(C)C=CC(=O)C=C12 [methylprednisolone]			DILI +VE (5-8), DILI -VE (-4) [3]: +VE; DILI severity category [4]: vLess-DILI-Concern
C[C@]12CCC(=O)C=C1CC[C@@H]1[C@@H]2CC[C@@]2(C)[C@H]1CC[C@]2(C)O [methyltestosterone]			DILI +VE (5-8), DILI -VE (-4) [3]: +VE; DILI severity category [4]: vLess-DILI-Concern
